Assays:
bulrush [1] = experiment: Test Example 2: herbicidal efficacy on rice paddy weeds post-emergence; assay type: in vivo, Scirpus juncoides; settings: 21 days after treatment
From the text: (§1) The standard of judgment for herbicidal efficacy (degree of growth inhibition) and phytotoxicity 4 . . . 90%-100% of herbicidal efficacy or phytotoxicity 3 . . . 70%-89% of herbicidal efficacy or phytotoxicity 2 . . . 40%-69% of herbicidal efficacy or phytotoxicity 1 . . . 1%-39% of herbicidal efficacy or phytotoxicity 0 . . . 0% of herbicidal efficacy or phytotoxicity
(§2) A 75 cm^2 plastic pot was filled with soil (clay loam) and planted seeds of barnyard glass and bulrush which is a rice paddy weed. After covering the top with 75 cm^3 soil mixed with seeds of false pimpernel, the pot was filled with water so that the soil submerged under 5 cm depth of water and kept in a hot house. […] The pot was kept in a hot house for 21 days after the treatment and the herbicidal efficacy was investigated and evaluated according to the standard in Test Example 1 by comparing with the untreated control. “-” in the table represents test not done.

false pimpernel [2] = experiment: Test Example 1: herbicidal efficacy on rice paddy weeds pre-emergence; assay type: in vivo, Lindernia pyxidaria; settings: 21 days
Description: (§3) A 75 cm^2 plastic pot was filled with soil (clay loam) and planted seeds of bulrush which is a rice paddy weed. After covering the top with 75 cm^3 soil mixed with seeds of false pimpernel, the pot was filled with water so that the soil submerged under 5 cm depth of water. The predetermined effective dosage ([…]) of a formulation containing the compound of the present invention prepared according to Formulation Example 1-4 as an active ingredient was diluted in water and added to the pot water surface dropwise. The pot was kept in a hot house for 21 days and the herbicidal efficacy was investigated. The herbicidal efficacy was evaluated according to the following standard by comparing with untreated control. “-” in the table represents test not done.
as §1

bulrush [3] = experiment: as above; assay type: in vivo, Scirpus juncoides; settings: 21 days
Description: as §3, §1

false pimpernel [4] = experiment: Test Example 2: herbicidal efficacy on rice paddy weeds post-emergence; assay type: in vivo, Lindernia pyxidaria; settings: post-emergence, one leaf stage, 21 days after treatment
From the text: as §1, §2

[5] = tested on: paddy rice plant (cultivar: Nihonbare); experiment: Test Example 3: phytotoxicity test for transplanted paddy rice plant; assay type: in vivo; settings: 21 days after treatment; for Phytotoxicity to paddy rice: transplanted rice
Description: as §1
A 75 cm^2 plastic pot was filled with soil (clay loam), and water was added so that the soil was submerged under 5 cm depth of water. Two paddy rice plant (cultivar: Nihonbare) at two leaves stage were transplanted at the depth of 1 cm and kept in a hot house. […] The pot was kept in a hot house for 21 days after the treatment and the phytotoxicity was investigated and evaluated according to the standard in Test Example 1 by comparing with the untreated control. “-” in the table represents test not done.

barnyard glass = experiment: Test Example 2: herbicidal efficacy on rice paddy weeds post-emergence; assay type: in vivo, Echinochloa crus-galli; settings: 21 days after treatment
From the text: as §1, §2

[6] = dosage 1000 g/ha, post-emergence, one leaf stage
[7] = dosage 1000 g/ha, treated 5 days after transplantation
[8] = dosage 300 g/ha, post-emergence, one leaf stage
[9] = dosage 1000 g/ha active ingredient, post-emergence treatment at one leaf stage, vs untreated control

Structure (SMILES) | Bulrush post (herbicidal efficacy grade) (bulrush [1]; [6]) | False pimpernel pre (herbicidal efficacy grade) (false pimpernel [2]; dosage 1000 g/ha) | Bulrush pre (herbicidal efficacy grade) (bulrush [3]; dosage 1000 g/ha) | False pimpernel post (herbicidal efficacy grade) (false pimpernel [4]; dosage 1000 g/ha) | Phytotoxicity to paddy rice [5, 7] | Burnyard grass post (herbicidal efficacy grade) (barnyard glass; [6]) | further results
CC1N(Cc2ccccc2NS(=O)(=O)C(F)(F)F)C(=O)OC1(C)C (stereo not drawn) [Compound 1-96] | 4 (90%-100% of herbicidal efficacy or phytotoxicity) | 4 (90%-100% of herbicidal efficacy or phytotoxicity) | 4 (90%-100% of herbicidal efficacy or phytotoxicity) | 4 (90%-100% of herbicidal efficacy or phytotoxicity) | 3 (70%-89% of herbicidal efficacy or phytotoxicity) | 4 (90%-100% of herbicidal efficacy or phytotoxicity) | 
CC(=O)OCC1CN(Cc2ccccc2NS(=O)(=O)C(F)(F)F)C(=O)O1 (stereo not drawn) [Compound 1-37] |  |  |  |  |  |  | Bulrush post (herbicidal efficacy grade) (bulrush [1]; [8]): 0 (0% of herbicidal efficacy or phytotoxicity); False pimpernel pre (herbicidal efficacy grade) (false pimpernel [2]; dosage 300 g/ha): 1 (1%-39% of herbicidal efficacy or phytotoxicity); Bulrush pre (herbicidal efficacy grade) (bulrush [3]; dosage 300 g/ha): 0 (0% of herbicidal efficacy or phytotoxicity); False pimpernel post (herbicidal efficacy grade) (false pimpernel [4]; dosage 300 g/ha): 3 (70%-89% of herbicidal efficacy or phytotoxicity); Phytotoxicity to paddy rice ([5]; dosage 300 g/ha): 0 (0% of herbicidal efficacy or phytotoxicity); Burnyard grass post (herbicidal efficacy grade) (barnyard glass; [8]): 0 (0% of herbicidal efficacy or phytotoxicity)
COC(=O)N(c1ccccc1CN1CC(C)(COCc2ccccc2)OC1=O)S(=O)(=O)C(F)(F)F (stereo not drawn) [Compound 1-175] | 4 (90%-100% of herbicidal efficacy or phytotoxicity) | 4 (90%-100% of herbicidal efficacy or phytotoxicity) | 4 (90%-100% of herbicidal efficacy or phytotoxicity) | 4 (90%-100% of herbicidal efficacy or phytotoxicity) | 1 (1%-39% of herbicidal efficacy or phytotoxicity) | 4 (90%-100% of herbicidal efficacy or phytotoxicity) | 
CC(C)COC(=O)N(c1ccccc1CN1CC(C)(CC(C)C)OC1=O)S(=O)(=O)C(F)(F)F (racemic) [Compound 1-104] | 4 (90%-100% of herbicidal efficacy or phytotoxicity) | 4 (90%-100% of herbicidal efficacy or phytotoxicity) | 4 (90%-100% of herbicidal efficacy or phytotoxicity) | 4 (90%-100% of herbicidal efficacy or phytotoxicity) | 2 (40%-69% of herbicidal efficacy or phytotoxicity) | 4 (90%-100% of herbicidal efficacy or phytotoxicity) | 
CC[C@H]1CN(Cc2ccccc2NS(=O)(=O)C(F)(F)F)C(=O)O1 [Compound 1-55] | 4 (90%-100% of herbicidal efficacy or phytotoxicity) | 4 (90%-100% of herbicidal efficacy or phytotoxicity) | 4 (90%-100% of herbicidal efficacy or phytotoxicity) | 4 (90%-100% of herbicidal efficacy or phytotoxicity) | 1 (1%-39% of herbicidal efficacy or phytotoxicity) | 4 (90%-100% of herbicidal efficacy or phytotoxicity) | 
CC(C)C1COC(=O)N1Cc1ccccc1NS(=O)(=O)C(F)(F)F (stereo not drawn) [Compound 1-9] |  |  |  |  |  |  | Bulrush post (herbicidal efficacy grade) (bulrush [1]; [8]): 4 (90%-100% of herbicidal efficacy or phytotoxicity); False pimpernel pre (herbicidal efficacy grade) (false pimpernel [2]; dosage 300 g/ha): 4 (90%-100% of herbicidal efficacy or phytotoxicity); Bulrush pre (herbicidal efficacy grade) (bulrush [3]; dosage 300 g/ha): 4 (90%-100% of herbicidal efficacy or phytotoxicity); False pimpernel post (herbicidal efficacy grade) (false pimpernel [4]; dosage 300 g/ha): 2 (40%-69% of herbicidal efficacy or phytotoxicity); Phytotoxicity to paddy rice ([5]; dosage 300 g/ha): 2 (40%-69% of herbicidal efficacy or phytotoxicity); Burnyard grass post (herbicidal efficacy grade) (barnyard glass; [8]): 4 (90%-100% of herbicidal efficacy or phytotoxicity)
CC(C)COC(=O)N(c1ccccc1CN1CC(C)(C(C)(C)C)OC1=O)S(=O)(=O)C(F)(F)F (stereo not drawn) [Compound 1-70] | 4 (90%-100% of herbicidal efficacy or phytotoxicity) | 4 (90%-100% of herbicidal efficacy or phytotoxicity) | 4 (90%-100% of herbicidal efficacy or phytotoxicity) | 4 (90%-100% of herbicidal efficacy or phytotoxicity) | 1 (1%-39% of herbicidal efficacy or phytotoxicity) | 4 (90%-100% of herbicidal efficacy or phytotoxicity) | 
COCC1CN(Cc2ccccc2N(C(=O)OCC(C)C)S(=O)(=O)C(F)(F)F)C(=O)O1 (stereo not drawn) [Compound 1-36] | 4 (90%-100% of herbicidal efficacy or phytotoxicity) | 4 (90%-100% of herbicidal efficacy or phytotoxicity) | 4 (90%-100% of herbicidal efficacy or phytotoxicity) | 4 (90%-100% of herbicidal efficacy or phytotoxicity) | 1 (1%-39% of herbicidal efficacy or phytotoxicity) | 4 (90%-100% of herbicidal efficacy or phytotoxicity) | 
COCC1(C)CN(Cc2ccccc2NS(=O)(=O)C(F)(F)F)C(=O)O1 (stereo not drawn) [Compound 1-137] |  |  |  |  |  |  | Bulrush post (herbicidal efficacy grade) (bulrush [1]; [8]): 4 (90%-100% of herbicidal efficacy or phytotoxicity); False pimpernel pre (herbicidal efficacy grade) (false pimpernel [2]; dosage 300 g/ha): 4 (90%-100% of herbicidal efficacy or phytotoxicity); Bulrush pre (herbicidal efficacy grade) (bulrush [3]; dosage 300 g/ha): 4 (90%-100% of herbicidal efficacy or phytotoxicity); False pimpernel post (herbicidal efficacy grade) (false pimpernel [4]; dosage 300 g/ha): 4 (90%-100% of herbicidal efficacy or phytotoxicity); Phytotoxicity to paddy rice ([5]; dosage 300 g/ha): 2 (40%-69% of herbicidal efficacy or phytotoxicity); Burnyard grass post (herbicidal efficacy grade) (barnyard glass; [8]): 4 (90%-100% of herbicidal efficacy or phytotoxicity)
COCC1(C)CN(Cc2ccccc2N(C(=O)OCC(C)C)S(=O)(=O)C(F)(F)F)C(=O)O1 (stereo not drawn) [Compound 1-138] | 4 (90%-100% of herbicidal efficacy or phytotoxicity) | 4 (90%-100% of herbicidal efficacy or phytotoxicity) | 4 (90%-100% of herbicidal efficacy or phytotoxicity) | 4 (90%-100% of herbicidal efficacy or phytotoxicity) | 2 (40%-69% of herbicidal efficacy or phytotoxicity) | 4 (90%-100% of herbicidal efficacy or phytotoxicity) | 
CC1(C)CN(Cc2cccc(O)c2NS(=O)(=O)C(F)(F)F)C(=O)O1 [1-214] |  |  |  |  |  |  | Bulrush post (herbicidal efficacy grade) (bulrush [1]; [9]): 1 (1%-39% of herbicidal efficacy or phytotoxicity); Bulrush pre (herbicidal efficacy grade) (bulrush [3]; dosage 1000 g/ha active ingredient, vs untreated control): 1 (1%-39% of herbicidal efficacy or phytotoxicity); Phytotoxicity to paddy rice (grade) ([5]; dosage 1000 g/ha active ingredient, treated 5 days after transplantation, vs untreated control): 0 (0% of herbicidal efficacy or phytotoxicity); Burnyard grass post (herbicidal efficacy grade) (barnyard glass; [9]): 0 (0% of herbicidal efficacy or phytotoxicity)
CC1(C)OC(=O)N(Cc2cc(Cl)ccc2NS(=O)(=O)C(F)(F)F)C1=O [1-211] | 4 (90%-100% of herbicidal efficacy or phytotoxicity) |  | 4 (90%-100% of herbicidal efficacy or phytotoxicity) |  | 4 (90%-100% of herbicidal efficacy or phytotoxicity) | 4 (90%-100% of herbicidal efficacy or phytotoxicity) | 
CC1(COCc2ccccc2)CN(Cc2ccccc2NS(=O)(=O)C(F)(F)F)C(=O)O1 (stereo not drawn) [Compound 1-173] | 4 (90%-100% of herbicidal efficacy or phytotoxicity) | 4 (90%-100% of herbicidal efficacy or phytotoxicity) | 4 (90%-100% of herbicidal efficacy or phytotoxicity) | 4 (90%-100% of herbicidal efficacy or phytotoxicity) | 1 (1%-39% of herbicidal efficacy or phytotoxicity) |  | 
CC(C)=CC1(C)CN(Cc2ccccc2NS(=O)(=O)C(F)(F)F)C(=O)O1 (stereo not drawn) [Compound 1-164] | 4 (90%-100% of herbicidal efficacy or phytotoxicity) | 4 (90%-100% of herbicidal efficacy or phytotoxicity) | 4 (90%-100% of herbicidal efficacy or phytotoxicity) | 4 (90%-100% of herbicidal efficacy or phytotoxicity) | 1 (1%-39% of herbicidal efficacy or phytotoxicity) |  | 

— US20080274892A1, “Novel Haloalkylsulfonanilide Derivative, Herbicide, and Method of Use Thereof” (priority 2005, published 2008)
